# Measured values: patent US12410207B2, “Galactoside inhibitor of galectins” (GALECTO BIOTECH AB, priority 2019, dated 2025)
# Tests used:
# Galectin-3 = Galectin-3 (Homo sapiens, UniProt P17931); assay: Fluorescence anisotropy assay, inhibition of galectin / fluorescein tagged saccharide probe interaction; conditions: compound as inhibitor of probe binding
# Method: (§1) The affinity of Example 1-45 for galectins were determined by a fluorescence anisotropy assay where the compound was used as an inhibitor of the interaction between galectin and a fluorescein tagged saccharide probe as described Sörme, P., Kahl-Knutsson, B., Huflejt, M., Nilsson, U. J., and Leffler H. (2004) Fluorescence polarization as an analytical tool to evaluate galectin-ligand interactions. Anal. Biochem. 334: 36-47, (Sorme et al., 2004) and Monovalent interactions of Galectin-1 By Salomonsson, Emma; Larumbe, Amaia; Tejler, Johan; Tullberg, Erik; Rydberg, Hanna; Sundin, Anders; Khabut, Areej; Frejd, Torbjorn; Lobsanov, Yuri D.; Rini, James M.; et al, From Biochemistry (2010), 49(44), 9518-9532, (Salomonsson et al., 2010).
# Galectin-1 = Galectin-1 (Homo sapiens, UniProt P09382); assay: as above; conditions: compound as inhibitor of probe binding
# Method: as §1
# MDR1 = assay: MDCK-MDR1 in vitro cell model of passage over Blood Brain Barrier; type: in vitro ADME; conditions: dog
# MDCK-MDR1 = assay: as above; type: in vitro ADME; conditions: MDCK-MDR1, result in words
# [1] = In vivo mouse pharmacokinetic experiment (plasma and brain)
# Method: FIG. 1 compares the mean plasma levels after IV and PO administration
# FIG. 2 compares the mean brain tissue concertation after IV and PO administration
# The ratio between exposure of example 35 in brain compared to plasma is determined to AUCbrain/AUCplasma=0.19 after oral administration. (AUC=area under the curve)
# [2] = MDCK-MDR1, first column, headed A > B
# [3] = MDCK-MDR1, second column, also headed A > B
# Chain of Galectin-3 (P17931 whole entry, species assumed): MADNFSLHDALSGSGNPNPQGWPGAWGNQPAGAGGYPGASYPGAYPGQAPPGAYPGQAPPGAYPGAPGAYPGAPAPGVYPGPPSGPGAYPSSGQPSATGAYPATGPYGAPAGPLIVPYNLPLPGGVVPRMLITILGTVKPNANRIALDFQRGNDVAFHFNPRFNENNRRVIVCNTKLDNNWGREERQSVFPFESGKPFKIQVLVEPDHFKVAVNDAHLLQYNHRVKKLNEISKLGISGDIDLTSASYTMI
# Chain of Galectin-1 (P09382 whole entry, species assumed): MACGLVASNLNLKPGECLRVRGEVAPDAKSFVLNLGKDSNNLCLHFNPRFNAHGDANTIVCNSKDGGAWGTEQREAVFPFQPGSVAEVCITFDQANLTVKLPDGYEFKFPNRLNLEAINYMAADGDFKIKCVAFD
Compound,Kd (Galectin-3) [nM],Kd (Galectin-1) [nM],Papp (MDR1; [2]) [×10⁻⁶ cm/s],Papp (MDR1; [3]) [×10⁻⁶ cm/s],efflux and uptake in in vitro cell model of BBB passage (MDCK-MDR1),"systemic bioavailability ([1]; IV 1 mg/kg and PO 10 mg/kg, FIG. 1)","exposure in brain ([1]; IV 1 mg/kg and PO 10 mg/kg, FIG. 2)","Kp ([1]; brain (relative to plasma), after oral administration (PO 10 mg/kg), read-out: AUCbrain/AUCplasma)"
"OCC1O[C@H](Sc2cncc(Cl)c2)C(O)C(n2cc(-c3cc(F)c(Cl)c(F)c3)cn2)[C@H]1O (stereo partly drawn) [Example 2, 5-Chloropyridin-3-yl 3-[4-(4-chloro-3,5-difluorophenyl)-1H-1,2-pyrazol-1-yl]-3-deoxy-1-thio-α-D-galactopyranoside]",20,27600,25,50,low or no efflux and high uptake,–,–,–
"OCC1O[C@H](Sc2cncc(Cl)c2)C(O)C(n2cc(-c3cc(F)c(F)c(F)c3)cn2)[C@H]1O (stereo partly drawn) [Example 3, 5-Chloropyridin-3-yl 3-deoxy-3-[4-(3,4,5-trifluorophenyl)-1H-1,2-pyrazol-1-yl]-1-thio-α-D-galactopyranoside]",28,12800,14,39,low or no efflux and high uptake,–,–,–
"OCC1O[C@H](Sc2cncc(Br)c2)C(O)C(n2cc(-c3cc(F)c(Cl)c(F)c3)cn2)[C@H]1O (stereo partly drawn) [Example 6, 5-Bromopyridin-3-yl 3-[4-(4-chloro-3,5-difluorophenyl)-1H-1,2-pyrazol-1-yl]-3-deoxy-1-thio-α-D-galactopyranoside]",16,23000,18,52,low or no efflux and high uptake,–,–,–
"N#Cc1ncc(Cl)cc1S[C@H]1OC(CO)[C@H](O)C(n2cc(-c3cc(F)c(F)c(F)c3)cn2)C1O (stereo partly drawn) [Example 12, 5-Chloro-2-cyanopyridin-3-yl 3-deoxy-3-[4-(3,4,5-trifluorophenyl)-1H-1,2-pyrazol-1-yl]-1-thio-α-D-galactopyranoside]",21,8200,12,51,low or no efflux and high uptake,–,–,–
"N#Cc1ncc(Br)cc1S[C@H]1OC(CO)[C@H](O)C(n2cc(-c3cc(F)c(F)c(F)c3)cn2)C1O (stereo partly drawn) [Example 15, 5-Bromo-2-cyanopyridin-3-yl 3-deoxy-3-[4-(3,4,5-trifluorophenyl)-1H-1,2-pyrazol-1-yl]-1-thio-α-D-galactopyranoside]",11,4800,12,53,low or no efflux and high uptake,–,–,–
"OCC1O[C@H](Sc2cncc(Cl)c2)C(O)C(n2cc(-c3ccc(Cl)c(F)c3)cn2)[C@H]1O (stereo partly drawn) [Example 17, 5-Chloropyridin-3-yl 3-[4-(4-chloro-3-fluorophenyl)-1H-1,2-pyrazol-1-yl]-3-deoxy-1-thio-α-D-galactopyranoside]",29,19700,28,49,low or no efflux and high uptake,–,–,–
"N#Cc1ncc(Cl)cc1S[C@H]1OC(CO)[C@H](O)C(n2cc(-c3nc(Cl)cs3)cn2)C1O (stereo partly drawn) [Example 30, 5-Chloro-2-cyanopyridin-3-yl 3-[4-(4-chlorothiazol-2-yl)-1H-1,2-pyrazol-1-yl]-3-deoxy-1-thio-α-D-galactopyranoside]",1100,510,–,–,–,–,–,–
"OCC1O[C@H](Sc2cncc(Cl)c2)C(O)C(n2cc(-c3csc(O)n3)cn2)[C@H]1O (stereo partly drawn) [Example 31, 5-Chloropyridin-3-yl 3-deoxy-3-[4-(2-hydroxythiazol-4-yl)-1H-1,2-pyrazol-1-yl]-1-thio-α-D-galactopyranoside]",3400,140,–,–,–,–,–,–
"COC1C(n2cc(-c3cc(F)c(F)c(F)c3)cn2)[C@@H](O)C(CO)O[C@@H]1Sc1cncc(Cl)c1 (stereo partly drawn) [Example 32, 5-Chloropyridin-3-yl 3-deoxy-3-[4-(3,4,5-trifluorophenyl)-1H-1,2-pyrazol-1-yl]-2-O-methyl-1-thio-α-D-galactopyranoside]",17,6700,30,33,low or no efflux and high uptake,–,–,–
"COC1C(n2cc(-c3cc(F)c(F)c(F)c3)cn2)[C@@H](O)C(CO)O[C@@H]1Sc1cncc(Br)c1 (stereo partly drawn) [Example 33, 5-Bromopyridin-3-yl 3-deoxy-3-[4-(3,4,5-trifluorophenyl)-1H-1,2-pyrazol-1-yl]-2-O-methyl-1-thio-α-D-galactopyranoside]",22,3600,34,23,low or no efflux and high uptake,–,–,–
"C#Cc1cncc(S[C@H]2OC(CO)[C@H](O)C(n3cc(-c4cc(F)c(F)c(F)c4)cn3)C2OC)c1 (stereo partly drawn) [Example 34, 5-Ethynylpyridin-3-yl 3-deoxy-3-[4-(3,4,5-trifluorophenyl)-1H-1,2-pyrazol-1-yl]-2-O-methyl-1-thio-α-D-galactopyranoside]",23,16500,35,37,low or no efflux and high uptake,–,–,–
"COC1C(n2cc(-c3cc(F)c(F)c(F)c3)cn2)[C@@H](O)C(CO)O[C@@H]1Sc1cc(Cl)cnc1C#N (stereo partly drawn) [Example 35, 5-Chloro-2-cyanopyridin-3-yl 3-deoxy-3-[4-(3,4,5-trifluorophenyl)-1H-1,2-pyrazol-1-yl]-2-O-methyl-1-thio-α-D-galactopyranoside]",14,3100,23,35,low or no efflux and high uptake,excellent systemic bioavailability,good exposure in brain,0.19
"OCC1O[C@H](Sc2cncc(Cl)c2)C(O)C(n2cnc(-c3cc(F)c(F)c(F)c3)c2)[C@H]1O (stereo partly drawn) [Example 36, 5-Chloropyridin-3-yl 3-deoxy-3-[4-(3,4,5-trifluorophenyl)-1H-1,3-imidazol-1-yl]-1-thio-α-D-galactopyranoside]",67,12700,–,–,–,–,–,–
"OCC1O[C@H](Sc2cc(Cl)cnc2N2CC(CO)(CO)C2)C(O)C(n2cc(-c3cc(F)c(F)c(F)c3)cn2)[C@H]1O (stereo partly drawn) [Example 37, 5-Chloro-[3,3-bis(hydroxymethyl)azetidin-1-yl]pyridin-3-yl 3-deoxy-3-[4-(3,4,5-trifluorophenyl)-1H-1,2-pyrazol-1-yl]-1-thio-α-D-galactopyranoside]",13,5100,–,–,–,–,–,–
"COC1C(n2ccc(-c3cc(F)c(F)c(F)c3)n2)[C@@H](O)C(CO)O[C@@H]1Sc1cncc(Cl)c1 (stereo partly drawn) [Example 38, 5-Chloropyridin-3-yl 3-deoxy-3-[3-(3,4,5-trifluorophenyl)-1H-1,2-pyrazol-1-yl]-2-O-methyl-1-thio-α-D-galactopyranoside]",450,51000,–,–,–,–,–,–
"OC[C@H]1O[C@H](Sc2ccc(Cl)c(Cl)c2)[C@H](O)[C@@H](c2nc(-c3cc(F)c(F)c(F)c3)co2)[C@H]1O [Example 39, 3,4-Dichlorophenyl 3-deoxy-3-[4-(3,4,5-trifluorophenyl)-oxazol-2-yl]-1-thio-α-D-galactopyranoside]",300,> 100000,–,–,–,–,–,–
"OC[C@H]1O[C@H](Sc2ccc(Cl)c(Cl)c2)[C@H](O)[C@@H](c2nc(-c3cc(F)c(F)c(F)c3)cs2)[C@H]1O [Example 40, 3,4-Dichlorophenyl 3-deoxy-3-[4-(3,4,5-trifluorophenyl)-thiazol-2-yl]-1-thio-α-D-galactopyranoside]",2000,> 100000,–,–,–,–,–,–
"OC[C@H]1O[C@H](Sc2ccc(Cl)c(Cl)c2)[C@H](O)[C@@H](c2nnc(-c3cc(F)c(F)c(F)c3)o2)[C@H]1O [Example 41, 3,4-Dichlorophenyl 3-deoxy-3-[5-(3,4,5-trifluorophenyl)-1,3,4-oxadiazol-2-yl]-1-thio-α-D-galactopyranoside]",1200,> 100000,–,–,–,–,–,–
"COC1C(n2cc(-c3csc(O)n3)cn2)[C@@H](O)C(CO)O[C@@H]1Sc1ccc(Cl)c(Cl)c1 (stereo partly drawn) [Example 42, 3,4-Dichlorophenyl 3-deoxy-3-[4-(2-hydroxythiazol-4-yl)-1H-1,2-pyrazol-1-yl]-2-O-methyl-1-thio-α-D-galactopyranoside]",63000,180,–,–,–,–,–,–
"COC1C(n2cc(-c3csc(N)n3)cn2)[C@@H](O)C(CO)O[C@@H]1Sc1ccc(Cl)c(Cl)c1 (stereo partly drawn) [Example 43, 3,4-Dichlorophenyl 3-[4-(2-aminothiazol-4-yl)-1H-1,2-pyrazol-1-yl]-3-deoxy-2-O-methyl-1-thio-α-D-galactopyranoside]",11000,2100,–,–,–,–,–,–
"COC1C(n2cc(-c3cc(F)c(Cl)c(F)c3)cn2)[C@@H](O)C(CO)O[C@@H]1Sc1cc(Cl)ccc1C#N (stereo partly drawn) [Example 44, 5-Chloro-2-cyanophenyl 3-[4-(4-chloro-3,5-difluorophenyl)-1H-1,2-pyrazol-1-yl]-3-deoxy-2-O-methyl-1-thio-α-D-galactopyranoside]",40,50000,–,–,–,–,–,–
"COC1C(n2cc(-c3cc(F)c(F)c(F)c3)cn2)[C@@H](O)C(CO)O[C@@H]1Sc1cc(Cl)ccc1C#N (stereo partly drawn) [Example 45, 5-Chloro-2-cyanophenyl 3-deoxy-3-[4-(3,4,5-trifluorophenyl)-1H-1,2-pyrazol-1-yl]-2-O-methyl-1-thio-α-D-galactopyranoside]",30,8500,–,–,–,–,–,–
